Laboratory results reported in ChEMBL document CHEMBL5523739, “NN1213 - A Potent, Long-Acting, and Selective Analog of Human Amylin” (J Med Chem, 2024).
pEC50, pIC50: −log10 of the molar value. ≈ marks a conversion by molar mass, not a printed value. Bridge positions count the residues as written; N and C are the ends. Peptide text beside a SMILES is read from it.

What was measured:
Calcitonin receptor [1] = biological target: T1, Calcitonin receptor (Homo sapiens, UniProt P30988); assay: Agonist activity at human CTR expressed in Baby hamster kidney cells incubated for 3 hrs followed by medium replacement without compound measured after 30 mins by luciferase reporter assay; type: functional, cell-based, Baby hamster kidney cell
T1 sequence (P30988 whole entry): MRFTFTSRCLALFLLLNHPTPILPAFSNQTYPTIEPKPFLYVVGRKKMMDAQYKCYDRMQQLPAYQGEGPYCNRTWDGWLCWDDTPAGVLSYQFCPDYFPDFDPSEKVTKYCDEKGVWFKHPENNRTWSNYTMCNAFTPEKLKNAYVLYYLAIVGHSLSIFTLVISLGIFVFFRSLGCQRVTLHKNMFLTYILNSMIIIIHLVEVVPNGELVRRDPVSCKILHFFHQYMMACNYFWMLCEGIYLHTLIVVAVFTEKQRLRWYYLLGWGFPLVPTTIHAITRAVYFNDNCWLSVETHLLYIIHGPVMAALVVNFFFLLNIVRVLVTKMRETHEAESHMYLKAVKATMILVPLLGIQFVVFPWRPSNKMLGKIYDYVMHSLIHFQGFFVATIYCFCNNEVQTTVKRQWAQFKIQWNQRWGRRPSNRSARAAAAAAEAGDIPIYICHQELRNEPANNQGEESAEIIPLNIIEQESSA

Homo sapiens = species on record: Homo sapiens; assay: Selectivity ratio of EC50 for human CTR expressed in Baby hamster kidney cells to EC50 for human AMY3R complex of CTR/RAMP3 expressed in Baby hamster kidney cells; type: cell-based
[2] = Solubility of compound at pH 8 incubated overnight by UPLC analysis; type: physicochemical; details: buffer
[3] = Stability against amyloid fibril formation at pH 7.5 assessed as compound recovery at 1 uM measured after 45 hrs by ThT assay; type: physicochemical; details: pH 7.5, 45 h
[4] = Solubility of compound at pH 6.5 incubated overnight by UPLC analysis; type: physicochemical; details: buffer
[5] = biological target: T2, Amylin receptor AMY3; CALCR/RAMP3 (Homo sapiens, UniProt O60896+P30988); assay: Agonist activity at human AMY3R complex of CTR/RAMP3 expressed in Baby hamster kidney cells incubated for 3 hrs followed by medium replacement without compound measured after 30 mins by luciferase reporter assay; type: functional, cell-based, Baby hamster kidney cell
T2 sequence (P30988 whole entry): T1 sequence (P30988 whole entry)
T2 sequence (O60896 whole entry): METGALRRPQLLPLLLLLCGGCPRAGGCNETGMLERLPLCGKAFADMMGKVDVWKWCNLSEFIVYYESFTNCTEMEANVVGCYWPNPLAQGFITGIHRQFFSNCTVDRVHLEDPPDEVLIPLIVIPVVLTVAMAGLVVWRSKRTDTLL

[6] = Solubility of compound at pH 6 incubated overnight by UPLC analysis; type: physicochemical; details: buffer
[7] = Stability against amyloid fibril formation at pH 7.5 assessed as lag time at 1 uM measured after 45 hrs by ThT assay; type: physicochemical; details: pH 7.5, 45 h
[8] = Solubility of compound at pH 5 incubated overnight by UPLC analysis; type: physicochemical; details: buffer
[9] = Solubility of compound at pH 3 incubated overnight by UPLC analysis; type: physicochemical; details: buffer
[10] = Solubility of compound at pH 7 incubated overnight by UPLC analysis; type: physicochemical; details: buffer
[11] = Solubility of compound at pH 4 incubated overnight by UPLC analysis; type: physicochemical; details: buffer
[12] = Solubility of compound at pH 7.5 incubated overnight by UPLC analysis; type: physicochemical; details: buffer
Rattus norvegicus = species on record: Rattus norvegicus; assay: Selectivity ratio of EC50 for rat CTR expressed in Baby hamster kidney cells to EC50 for rat AMY3R complex of CTR/RAMP3 expressed in Baby hamster kidney cells; type: cell-based
[13] = biological target: T3, Amylin receptor AMY3; CALCR/RAMP3 (Rattus norvegicus, UniProt P32214+Q9JJ73); assay: Agonist activity at rat AMY3R complex of CTR/RAMP3 expressed in Baby hamster kidney cells incubated for 3 hrs by cAMP assay; type: functional, cell-based, Baby hamster kidney cell
T3 sequence (P32214 whole entry): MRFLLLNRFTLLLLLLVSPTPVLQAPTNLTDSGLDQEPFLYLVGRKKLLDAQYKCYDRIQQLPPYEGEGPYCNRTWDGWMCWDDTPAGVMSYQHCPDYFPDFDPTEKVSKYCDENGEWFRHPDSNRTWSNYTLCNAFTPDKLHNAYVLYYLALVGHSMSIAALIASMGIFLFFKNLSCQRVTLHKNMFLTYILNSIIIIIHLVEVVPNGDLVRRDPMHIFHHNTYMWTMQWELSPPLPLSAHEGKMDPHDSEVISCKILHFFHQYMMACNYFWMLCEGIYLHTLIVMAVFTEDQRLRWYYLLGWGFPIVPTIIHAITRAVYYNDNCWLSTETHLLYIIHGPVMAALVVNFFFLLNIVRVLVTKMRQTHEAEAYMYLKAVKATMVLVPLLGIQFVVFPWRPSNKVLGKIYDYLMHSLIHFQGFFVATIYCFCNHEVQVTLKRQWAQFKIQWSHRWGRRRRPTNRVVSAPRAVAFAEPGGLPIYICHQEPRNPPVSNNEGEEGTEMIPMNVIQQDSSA
T3 sequence (Q9JJ73 whole entry): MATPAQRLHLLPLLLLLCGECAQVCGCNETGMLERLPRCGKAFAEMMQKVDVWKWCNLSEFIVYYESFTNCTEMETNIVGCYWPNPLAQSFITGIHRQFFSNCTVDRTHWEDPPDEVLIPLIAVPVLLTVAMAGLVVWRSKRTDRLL

Calcitonin receptor [14] = biological target: T4, Calcitonin receptor (Rattus norvegicus, UniProt P32214); assay: Agonist activity at rat CTR expressed in Baby hamster kidney cells incubated for 3 hrs by cAMP assay; type: functional, cell-based, Baby hamster kidney cell
T4 sequence (P32214 whole entry): T3 sequence (P32214 whole entry)

Calcitonin receptor [15] = biological target: T1, Calcitonin receptor; assay: Displacement of 125I-Calcitonin from human CTR expressed in Baby hamster kidney cell membrane incubated for 120 mins by SPA method; type: cell membranes
[16] = biological target: T3, Amylin receptor AMY3; CALCR/RAMP3; assay: Displacement of 125I-rat amylin from rat AMY3R complex of CTR/RAMP3 expressed in Baby hamster kidney cell membrane incubated for 120 mins by SPA method; type: cell membranes
[17] = biological target: T2, Amylin receptor AMY3; CALCR/RAMP3; assay: Displacement of 125I-rat amylin from human AMY3R complex of CTR/RAMP3 expressed in Baby hamster kidney cell membrane incubated for 120 mins by SPA method; type: cell membranes
Calcitonin receptor [18] = biological target: T4, Calcitonin receptor; assay: Displacement of 125I-Calcitonin from rat CTR expressed in Baby hamster kidney cell membrane incubated for 120 mins by SPA method; type: cell membranes

| Structure (SMILES) | pEC50 (Calcitonin receptor [1]) | Ratio EC50 (Homo sapiens) | solubility [2] | Drug recovery [3] | solubility [4] | pEC50 [5] | solubility [6] | Time [7] | solubility [8] | solubility [9] | solubility [10] | solubility [11] | solubility [12] | Ratio EC50 (Rattus norvegicus) | pEC50 [13] | pEC50 (Calcitonin receptor [14]) | pIC50 (Calcitonin receptor [15]) | pIC50 [16] | pIC50 [17] | pIC50 (Calcitonin receptor [18]) |
| --- | --- | --- | --- | --- | --- | --- | --- | --- | --- | --- | --- | --- | --- | --- | --- | --- | --- | --- | --- | --- |
| CC(C)C[C@H](NC(=O)[C@H](CCCNC(=N)N)NC(=O)[C@H](CCC(N)=O)NC(=O)[C@@H](NC(=O)[C@H](C)NC(=O)[C@@H]1CSSC[C@H](NC(=O)[C@@H](N)CCCCN)C(=O)N[C@@H](CC(N)=O)C(=O)N[C@@H]([C@@H](C)O)C(=O)N[C@@H](C)C(=O)N[C@@H]([C@@H](C)O)C(=O)N1)[C@@H](C)O)C(=O)N[C@@H](C)C(=O)N[C@@H](CC(=O)O)C(=O)N[C@@H](Cc1ccccc1)C(=O)N[C@@H](CC(C)C)C(=O)N[C@@H](CCCNC(=N)N)C(=O)N[C@@H](Cc1c[nH]cn1)C(=O)N[C@@H](CO)C(=O)N[C@@H](CO)C(=O)N[C@@H](CCC(N)=O)C(=O)N[C@@H](CC(N)=O)C(=O)N[C@@H](Cc1ccccc1)C(=O)NCC(=O)N[C@@H](C)C(=O)N1CCC[C@H]1C(=O)N[C@@H](CC(C)C)C(=O)N[C@@H](CO)C(=O)N[C@@H](CO)C(=O)N[C@H](C(=O)N[C@@H](CC(N)=O)C(=O)N[C@H](C(=O)NCC(=O)N[C@@H](CO)C(=O)N1CCC[C@H]1C(=O)N[C@H](C(=O)N[C@@H](Cc1ccc(O)cc1)C(N)=O)[C@@H](C)O)C(C)C)[C@@H](C)O (H-KCNTATCATQRLADFLRHSSQNFGAPLSSTNVGSPTY-NH2; disulfide 2-7) | 8.86 | 0.9 | 15 µM (≈ 59.1 µg/mL) | 0% | 75 µM (≈ 296 µg/mL) | 8.81 | ≥ 200 µM | 0 h | ≥ 200 µM | ≥ 200 µM | 7 µM (≈ 27.6 µg/mL) | ≥ 200 µM | 7 µM (≈ 27.6 µg/mL) | – | – | – | – | – | – | – |
| CC(C)C[C@H](NC(=O)[C@H](CCCNC(=N)N)NC(=O)[C@H](CCC(N)=O)NC(=O)[C@@H](NC(=O)[C@H](C)NC(=O)[C@@H]1CSSC[C@H](NC(=O)[C@@H](N)CCCCN)C(=O)N[C@@H](CC(N)=O)C(=O)N[C@@H]([C@@H](C)O)C(=O)N[C@@H](C)C(=O)N[C@@H]([C@@H](C)O)C(=O)N1)[C@@H](C)O)C(=O)N[C@@H](C)C(=O)N[C@@H](CC(=O)O)C(=O)N[C@@H](Cc1ccccc1)C(=O)N[C@@H](CC(C)C)C(=O)N[C@@H](CCCNC(=N)N)C(=O)N[C@@H](Cc1c[nH]cn1)C(=O)N[C@@H](CO)C(=O)N[C@@H](CO)C(=O)N[C@@H](CCC(N)=O)C(=O)N[C@@H](CC(N)=O)C(=O)N[C@@H](Cc1ccccc1)C(=O)NCC(=O)N[C@@H](C)C(=O)N1CCC[C@H]1C(=O)N[C@@H](CC(C)C)C(=O)N[C@@H](CO)C(=O)N[C@@H](CO)C(=O)N[C@H](C(=O)N1CCC[C@H]1C(=O)N[C@H](C(=O)NCC(=O)N[C@@H](CO)C(=O)N[C@@H](CC(=O)O)C(=O)N[C@H](C(=O)N[C@@H](Cc1ccc(O)cc1)C(N)=O)[C@@H](C)O)C(C)C)[C@@H](C)O (H-KCNTATCATQRLADFLRHSSQNFGAPLSSTPVGSDTY-NH2; disulfide 2-7) | 9.16 | 3.9 | ≥ 200 µM | 100% | ≥ 200 µM | 9.74 | ≥ 200 µM | > 45 h | ≥ 200 µM | ≥ 200 µM | ≥ 200 µM | ≥ 200 µM | ≥ 200 µM | 31 | 9.33 | 7.84 | – | – | – | – |
| CC[C@H](C)[C@H](NC(=O)[C@H](C)NC(=O)CNC(=O)[C@H](Cc1ccccc1)NC(=O)[C@H](CC(N)=O)NC(=O)[C@@H]1CCCN1C(=O)[C@H](CO)NC(=O)[C@H](CO)NC(=O)[C@H](Cc1c[nH]cn1)NC(=O)[C@H](CCCNC(=N)N)NC(=O)[C@H](CC(C)C)NC(=O)[C@H](Cc1ccccc1)NC(=O)[C@H](CC(=O)O)NC(=O)[C@H](C)NC(=O)[C@H](CC(C)C)NC(=O)[C@H](CCCNC(=N)N)NC(=O)[C@H](CCC(N)=O)NC(=O)[C@@H](NC(=O)[C@H](C)NC(=O)[C@@H]1CSSC[C@H](NC(=O)[C@@H](N)CCCCN)C(=O)N[C@@H](CC(N)=O)C(=O)N[C@@H]([C@@H](C)O)C(=O)N[C@@H](C)C(=O)N[C@@H]([C@@H](C)O)C(=O)N1)[C@@H](C)O)C(=O)N1CCC[C@H]1C(=O)N[C@@H](CO)C(=O)N[C@@H](CO)C(=O)N[C@H](C(=O)N[C@@H](CC(N)=O)C(=O)N[C@H](C(=O)NCC(=O)N[C@@H](CO)C(=O)N[C@@H](CC(=O)O)C(=O)N[C@H](C(=O)N[C@@H](Cc1ccc(O)cc1)C(N)=O)[C@@H](C)O)C(C)C)[C@@H](C)O | 8.61 | – | ≥ 200 µM | 100% | 190 µM (≈ 747 µg/mL) | 9.79 | ≥ 200 µM | > 45 h | ≥ 200 µM | ≥ 200 µM | ≥ 200 µM | ≥ 200 µM | ≥ 200 µM | – | 9.19 | 6.07 | 7.71 | 9.66 | 9.45 | 7.01 |
